Assay results as given in patent US10272117B2, “Methods of using an activator of cereblon for neural cell expansion and the treatment of central nervous system disorders” (Celgene Corporation, priority 2014, dated 2019).

Test system: zebrafish embryos
Assay: Whole-mount in situ hybridization of gene expression in zebrafish embryos
Type: in vivo
Experimental: This process was carried out basically in accordance with the technique of Thisse et al. See High-resolution In Situ Hybridization to Whole-mount Zebrafish Embryos, Nat. Protcol., 3 (1) 59-69, (2008). The differences were that 5 mg/ml Torula yeast RNA was used as a blocker in the probe hybridization solution, and that 0.5% Blocking Reagent (Roche) was used as a blocker in the antibody reaction solution. The cDNA of the genes used as the probe (the six3.2 gene, the emx1 gene, the pax2.1 gene, the foxg1 gene, and the otx2 gene) were presents of the original provider. As the probe for the lhx2 gene, the one initially cloned by Ando was used. For the probes of the CRBN gene and related genes, primers were designed based on the EST database of zebrafish, and the probes were cloned from a cDNA library.
Expression of Pou5f1 (Oct3/4), Klf4, c-Myc, and HuC (Elavl3) in zebrafish embryos was analyzed by in situ hybridization. The embryos were fixed with 4% paraformaldehyde for 1 hour at room temperature and rinsed with phosphate buffered saline (PBS). The fixed embryos were refixed with 100% methanol and placed at −80° C. for over 12 hours. The embryos were defixed by rinsing with PBS, and the skin was digested with pronase (2 mg/ml), followed by refixation and defixation, and prehybridized in HYB* buffer (50% formamide, 5×SSC, 10 mM Citric acid, 0.1% Tween 20) for 15 minutes and in HYB+(added as 5 mg/ml torula (yeast) RNA, 50 μg/ml heparin to HYB*) for 1 hour at 65° C. After addition of 1 ng/μl of DIG (digoxigenin)-labeled probe, hybridization was performed for overnight at 65° C. After hybridization, the embryos were washed by 50% formamide in 2×SSC for 30 minutes (twice), 2×SSC for 15 minutes, 0.2×SSC for 30 minutes (twice) at 65° C. Then blocking treatment was done by 0.5% purified casein in PBSTw (PBS plus 0.1% Tween 20) at room temperature for 1 hour. After that, immunostaining was performed in 1/4000 dilution of anti-DIG Fab-AP fragment in 0.5% purified casein in PBSTw for 4 hours at room temperature.
After washing with PBSTw for 90 minutes, staining was carried out in the presence of substrate of alkaline phosphatase (Nitro blue tetrazolium and 5-bromo 4-chloro 3-indolyl phosphate) in 100 mM Tris pH 9.5, 50 mM MgCl2, 100 mM NaCl, and 0.1% Tween-20. Reaction was stopped by rapid exchange of reaction buffer to PBSTw and cleaned with glycerol serials (30%, 50%, and 70% in PBS).
Expression of Ascl1a and Pou3f2b in CRBN-overexpressing and Ikaros-knockdown zebrafish embryos was analyzed by in situ hybridization. The embryos were fixed with 4% paraformaldehyde for 1 hour at room temperature and rinsed with phosphate buffered saline (PBS). The fixed embryos were refixed with 100% methanol and placed at −80° C. for over 12 hours. The embryos were defixed by rinsing with PBS, and the skin was digested with pronase (2 mg/ml), followed by refixation and defixation, and prehybridized in HYB* buffer (50% formamide, 5×SSC, 10 mM Citric acid, 0.1% Tween 20) for 15 minutes and in HYB+(added as 5 mg/ml torula (yeast) RNA, 50 μg/ml heparin to HYB*) for 1 hour at 65° C. After addition of 1 ng/μl of DIG (digoxigenin)-labeled probe, hybridization was performed for overnight at 65° C. After hybridization, the embryos were washed by 50% formamide in 2×SSC for 30 minutes twice, 2×SSC for 15 minutes, 0.2×SSC for 30 minutes twice at 65° C. Then blocking treatment was done by 0.5% purified casein in PBSTw (PBS plus 0.1% Tween 20) at room temperature for 1 hour. After that, immunostaining was performed in 1/4000 dilution of anti-DIG Fab-AP fragment in 0.5% purified casein in PBSTw for 4 hours at room temperature.
Expression of Sox2, Pou5f1 (Oct3/4), c-Myc, and Klf4 in zebrafish embryos was analyzed in untreated and CRBN-overexpressing zebrafish embryos by in situ hybridization. Overexpression was performed as follows: single-cell stage embryos were microinjected with 250 ng/μl of capped mRNA synthesized in vitro. […]

Substance	expression of Pou5f1 (Oct3/4) in the second and fourth rhombomeres in the hindbrain (10 hpf and 11 hpf)	expression of Huc in the brain and spinal cord (11 hpf)	number of HuC-positive neural progenitor cells in the brain and spinal cord (15 hpf)	number of the telencephalic neurons and the spinal cord neurons (16 hpf)	expression of Klf4 in the rostral portion of the neural tube (18 hpf)	expression of c-Myc in the tectal proliferation zone and ciliary marginal zone (30 hpf)	expression of Ascl1a (25 hpf)	expression of Pou3f2b (26 hpf)
5′-TGTGTTTCTTGTGCTTTTTGCCCAT-3′ (all phosphorodiamidate morpholino (PMO)) [BRD7-knockdown, 25-mer antisense morpholino oligonucleotide (AMO) used for the BRD7 gene knockdown]	increased	increased	increased	increased	increased	clearly increased	–	–
5′-TTCCTGTGCCTCCTCAGTCTCCATC-3′ (all phosphorodiamidate morpholino (PMO)) [Ikaros-knockdown, 25-mer antisense morpholino oligonucleotide (AMO) used for the Ikaros gene knockdown]	–	–	–	–	–	–	remarkably increased	increased
